Legend:
[1] = target: T1, human A2a adenosine receptor (Homo sapiens, UniProt P29274); assay: A2a binding affinity using SPA, Method (B); settings: Method (B): [3H]SCH58261 SPA, membranes expressing human A2a
T1 construct: purchased Perkin Elmer RBHA2aM400UA; host or cells: HEK293 or CHO cells (recombinant expression)
Text: Method (A) describes the procedure used to measure A2a binding affinity using radioligand binding. Method (B) describes the procedure used to measure A2a binding affinity using SPA technology. The method used to measure A2b binding affinity is also described below. The method used to determine the A2a IC50 value reported for each compound in the table is indicated next to the reported value. The A2b IC50 value measured using the A2b binding affinity assay is shown in the table next to the compound under the corresponding A2a value.
The A2a receptor affinity binding assay measured the amount of binding of a tritiated ligand with high affinity for the A2a adenosine receptor to membranes made from HEK293 or CHO cells recombinantly expressing the human A2a adenosine receptor, in the presence of varying concentrations of a compound of the invention. The data were generated using either filtration binding or a homogenous scintillation proximity assay (SPA).
Method (B): Measurement of A2a Binding Affinity Using SPA
Binding affinity using SPA was conducted as follows. Test compounds (50 nL) were dispensed into individual wells of a 384-well OptiPlate™ well (Perkin Elmer) by Echo® acoustic liquid transfer (Labcyte). 20 μL of 1.25 nM [^3H] SCH58261 ((7-(2-phenylethyl)-5-amino-2-(2-furyl)-pyrazolo-[4,3-e]-1,2,4-triazolo[1,5-c]pyrimidine)) in DPBS assay buffer (Dulbecco's phosphate buffered saline without calcium and magnesium, ThermoFisher Scientific, Cat. No. A1285601) supplemented with 10 mM MgCl2 was added. A2a receptor-expressing membranes were incubated with 20 μg/mL adenosine deaminase (Roche, Cat. No. 10 102 105 001) for 15 minutes at room temperature. The receptor-expressing membranes were then combined with wheat germ agglutinin-coated yttrium silicate SPA beads (GE Healthcare, Cat. No. RPNQ0023) in a ratio of […] (w/w) and incubated for 30 minutes at room temperature. 30 μL of the membrane/bead mixture (0.25 μg and 25 μg per well respectively) were added to the 384-well OptiPlate™ well. To define total and non-specific binding, wells containing 1% DMSO or 1 μM CGS15943 (Tocris Bioscience, Cat. No. 1699) respectively were also included in the experiment. The plate was incubated for one hour at room temperature with agitation. The assay plate was then incubated for an hour to allow the beads to settle before data were collected using a TopCount® (Perkin Elmer) scintillation counter. After normalization to total and non-specific binding, the percent effect at each compound concentration was calculated. The plot of percent effect versus the log of compound concentration was analyzed electronically using a 4-parameter logistic fit based on the Levenberg-Marquardt algorithm to generate IC50 values.

[2] = target: T1, human A2a adenosine receptor; assay: A2a binding affinity using radioligand binding, Method (A); settings: Method (A): [3H]SCH58261 filtration binding, membranes expressing human A2a
In short: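 Filtration binding used human A2a membranes from HEK293 or CHO cells, preincubated with compound 15–30 min. [3H]SCH58261 (diluted to 4 nM) was then added in Tris pH 7.4, MgCl2, Tween20 buffer, with 60 min at room temperature. Non-specific binding was defined by 1 μM ZM241385, and IC50 came from a 4-parameter logistic fit.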

[3] = target: T2, human A2b adenosine receptor (Homo sapiens, UniProt P29275); assay: A2b binding affinity, radioligand filtration binding assay; settings: tritiated proprietary A2b antagonist, HEK293 membranes expressing human A2b
T2 construct: purchased Perkin Elmer ES-013-C; host or cells: HEK293 cells recombinantly expressing the receptor; membranes made from them
T2 sequence (P29275 1-332): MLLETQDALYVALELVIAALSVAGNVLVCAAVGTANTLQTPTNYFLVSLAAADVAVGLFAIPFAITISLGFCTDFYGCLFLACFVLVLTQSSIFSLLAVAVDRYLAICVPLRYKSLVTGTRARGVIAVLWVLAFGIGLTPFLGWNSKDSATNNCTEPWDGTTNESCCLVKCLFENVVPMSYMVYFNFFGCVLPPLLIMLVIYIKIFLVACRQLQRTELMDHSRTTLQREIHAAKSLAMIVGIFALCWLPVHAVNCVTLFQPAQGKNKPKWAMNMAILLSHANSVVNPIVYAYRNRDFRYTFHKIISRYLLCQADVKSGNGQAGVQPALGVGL
In short: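 Membranes from HEK293 cells expressing human A2b were preincubated with compound 15–30 min at room temperature, then incubated 60 min at room temperature with a tritiated proprietary A2b antagonist in PBS pH 7.4 without Mg/Ca. Non-specific binding defined with 20 μM NECA; filter-bound radioactivity counted and IC50 fitted by 4-parameter logistic.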

T1 sequence (P29274 whole entry): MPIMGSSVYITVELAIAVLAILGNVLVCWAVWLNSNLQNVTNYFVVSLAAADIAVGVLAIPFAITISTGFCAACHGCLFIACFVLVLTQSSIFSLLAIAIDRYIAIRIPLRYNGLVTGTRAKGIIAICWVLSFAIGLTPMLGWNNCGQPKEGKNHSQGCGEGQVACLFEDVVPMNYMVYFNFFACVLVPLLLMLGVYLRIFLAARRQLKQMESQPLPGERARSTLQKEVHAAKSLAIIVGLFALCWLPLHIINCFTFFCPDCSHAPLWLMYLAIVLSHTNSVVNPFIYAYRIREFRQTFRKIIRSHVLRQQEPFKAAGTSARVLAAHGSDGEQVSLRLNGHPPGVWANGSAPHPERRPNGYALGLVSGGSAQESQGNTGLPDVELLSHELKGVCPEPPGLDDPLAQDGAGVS

Row | Compound | IC50 [1] [µM] | IC50 [2] [µM] | IC50 [3] [µM]
1 | Nc1nc(-c2ccccc2)cc2nc([C@@H]3CCCN(CC(F)F)C3)nn12 [Example 9.2, (R)-2-(1-(2,2-difluoroethyl)piperidin-3-yl)-7-phenyl-[1,2,4]triazolo[1,5-c]pyrimidin-5-amine] | 0.0109 | – | –
2 | CC(C)(O)c1c(-c2ccccc2)nc(N)n2nc([C@@H]3CCCN(CC(F)(F)F)C3)nc12 [Example 6.5, (R)-2-(5-amino-7-phenyl-2-(1-(2,2,2-trifluoroethyl)piperidin-3-yl)-[1,2,4]triazolo[1,5-c]pyrimidin-8-yl)propan-2-ol] | 1.03 | – | –
3 | Nc1nc(-c2ccccc2)c(C2CC2)c2nc([C@@H]3CCCN(CC(F)(F)F)C3)nn12 [Example 5.5, (R)-8-cyclopropyl-7-phenyl-2-(1-(2,2,2-trifluoroethyl)piperidin-3-yl)-[1,2,4]triazolo[1,5-c]pyrimidin-5-amine] | 0.0817 | – | –
4 | C=C(C)c1c(-c2ccccc2)nc(N)n2nc([C@@H]3CCCN(CC(F)(F)F)C3)nc12 [Example 7.3, (R)-7-phenyl-8-(prop-1-en-2-yl)-2-(1-(2,2,2-trifluoroethyl)piperidin-3-yl)-[1,2,4]triazolo[1,5-c]pyrimidin-5-amine] | 0.0658 | – | –
5 | Cc1c(-c2ncco2)nc(N)c2nc([C@@H]3CCCN(c4cnn(C)c4)C3)nn12 (single isomer, unassigned) [Example 2.5-1] | – | 0.0148 | 0.77
6 | Cc1c(-c2ncco2)nc(N)n2nc(C3CCN(c4cnn(CC(C)(C)O)c4)C3)nc12 (single isomer, unassigned) [Example 3.15-1, (R or S)-1-(4-(3-(5-amino-8-methyl-7-(oxazol-2-yl)-[1,2,4]triazolo[1,5-c]pyrimidin-2-yl)pyrrolidin-1-yl)-1H-pyrazol-1-yl)-2-methylpropan-2-ol] | – | 0.0426 | 0.386
7 | Cc1c(-c2ncco2)nc(N)n2nc(C3CCCC(C)(O)C3)nc12 (single isomer, unassigned) [Example 8.3-1, (1-R or S,3-R or S)-3-(5-amino-8-methyl-7-(oxazol-2-yl)-[1,2,4]triazolo[1,5-c]pyrimidin-2-yl)-1-methylcyclohexan-1-ol] | – | 0.0079 | 5.56
8 | CCn1cc(N2C[C@H](c3nc4c(C)c(-c5cccc(F)c5)nc(N)n4n3)CC[C@@H]2C)cn1 [Example 2.16, 2-((3R,6S)-1-(1-ethyl-1H-pyrazol-4-yl)-6-methylpiperidin-3-yl)-7-(3-fluorophenyl)-8-methyl-[1,2,4]triazolo[1,5-c]pyrimidin-5-amine] | – | 0.0088 | 0.0826
9 | Cc1c(-c2cc(F)ccc2F)nc(N)c2nc([C@@H]3CCCN(c4cnn(C)c4)C3)nn12 (single isomer, unassigned) [Example 2.6] | – | 0.218 | 0.436

From US12466831B2, “Substituted amino triazolopyrimidine and amino triazolopyrazine adenosine receptor antagonists, pharmaceutical compositions and their use” (Merck Sharp & Dohme LLC, priority 2018, dated 2025)
